{"source": "paper PMC10457740", "about": "“Design, Synthesis and Biological Evaluation of Novel PEG-Rakicidin B1 Hybrid as Clostridium difficile (CD) Targeted Anti-Bacterial Agent” (Molecules, 2023)", "key": {"[1]": {"system": "C. difficile infection (CDI)", "conditions": "cited from earlier work; for recurrence of CDI: patients, after treatment; for response in patients: treatment of mild to moderate episodes of CDI"}, "CD strain ATCC 43255": {"system": "CD strain ATCC 43255", "assay": "CDI mouse model (survival, recurrence, weight, clinical scores)"}, "[2]": {"system": "PANC-1 cells (zebrafish pancreatic cancer transplant model)", "assay": "In vivo cytotoxicity, zebrafish pancreatic cancer transplant model", "conditions": "48 h, n = 10"}, "PANC-1": {"system": "PANC-1", "assay": "In vitro cytotoxicity, CCK-8 assay, PANC-1", "format": "cell-based", "conditions": "Homo sapiens, PANC-1, 48 h"}, "Caco-2": {"system": "Caco-2", "assay": "In vitro cytotoxicity, CCK-8 assay, Caco-2", "format": "cell-based", "conditions": "Homo sapiens, Caco-2, 48 h"}, "HCT-8 cells": {"system": "HCT-8 cells", "assay": "In vitro cytotoxicity, CCK-8 assay, HCT-8", "format": "cell-based", "conditions": "Homo sapiens, HCT-8, 48 h"}}, "note": "pIC50: −log10 of the molar value. Counter-ions that a name gives are not always drawn. Like-named read-outs stand apart in the source and are kept apart here.", "data": [{"smiles": "Cc1ncc([N+](=O)[O-])n1CCO", "note": "[metronidazole]", "values": [{"measurement": "recurrence of CDI", "setting": "[1]", "result": "25–30%"}, {"measurement": "response in patients", "setting": "[1]", "result": "approximately 90%"}]}, {"smiles": "CN[C@H](CC(C)C)C(=O)N[C@H]1C(=O)N[C@@H](CC(N)=O)C(=O)N[C@H]2C(=O)N[C@H]3C(=O)N[C@H](C(=O)N[C@H](C(=O)O)c4cc(O)cc(O)c4-c4cc3ccc4O)[C@H](O)c3ccc(c(Cl)c3)Oc3cc2cc(c3O[C@@H]2O[C@H](CO)[C@@H](O)[C@H](O)[C@H]2O[C@H]2C[C@](C)(N)[C@H](O)[C@H](C)O2)Oc2ccc(cc2Cl)[C@H]1O", "note": "[vancomycin]", "values": [{"measurement": "recurrence of CDI", "setting": "[1]", "result": "25–30%"}, {"measurement": "response in patients", "setting": "[1]", "result": "approximately 90%"}, {"measurement": "mortality rate after stopping treatment (recurrence of infection)", "setting": "CD strain ATCC 43255; C57BL/6 mice, vancomycin 20 mg/kg once a day for seven days, monitored until day 21", "result": 40, "unit": "%"}, {"measurement": "body weight changes and clinical scores after stopping treatment", "setting": "CD strain ATCC 43255; infected C57BL/6 mice, after seven-day treatment, until day 21", "result": "significant weight loss and a sharp increase in clinical scores"}, {"measurement": "body weight changes and clinical scores while receiving treatment", "setting": "CD strain ATCC 43255; infected C57BL/6 mice, during seven-day treatment", "result": "did not experience weight loss or an increase in clinical scores"}, {"measurement": "recurrence of infection after treatment ended", "setting": "CD strain ATCC 43255; infected C57BL/6 mice, monitored until day 21", "result": "recurrence of infection is observed"}]}, {"smiles": "Nc1ccn([C@@H]2O[C@H](CO)[C@@H](O)C2(F)F)c(=O)n1", "note": "[gemcitabine hydrochloride]", "values": [{"measurement": "Fluorescence Intensity (S, Mean ± SE)", "setting": "[2]; 66.7 µM in water", "result": "540,311 ± 59,245 ^1"}, {"measurement": "inhibition at 66.7 µM", "setting": "[2]; Danio rerio, PANC-1, 66.7 µM in water, read-out: Inhibition Rate (%)", "result": 42, "unit": "%"}]}, {"smiles": "C=C1/C=C/C(=O)N(C)CC(=O)N[C@@H]([C@H](O)C(N)=O)C(=O)O[C@@H]([C@H](C)CCCCCCCCCCCC(C)CC)[C@H](C)C(=O)N1", "note": "(stereo partly shown) [Rakicidin B1]", "values": [{"measurement": "pIC50", "setting": "PANC-1; read-out: IC50 PANC-1, hypoxia (5% CO2, 95% N2), 48 h, CCK-8", "result": 6.31}, {"measurement": "pIC50", "setting": "PANC-1; read-out: IC50 PANC-1, normoxia, 48 h drug exposure, CCK-8", "result": 6.09}, {"measurement": "pIC50", "setting": "Caco-2; read-out: IC50 Caco-2, hypoxia (5% CO2, 95% N2), 48 h, CCK-8", "result": 6.34}, {"measurement": "pIC50", "setting": "Caco-2; read-out: IC50 Caco-2, normoxia, 48 h drug exposure, CCK-8", "result": 6.23}, {"measurement": "Fluorescence Intensity (S, Mean ± SE)", "setting": "[2]; 22.4 nM in water", "result": "773,141 ± 49,850"}, {"measurement": "Fluorescence Intensity (S, Mean ± SE)", "setting": "[2]; 67.2 nM in water", "result": "662,225 ± 41,743"}, {"measurement": "Fluorescence Intensity (S, Mean ± SE)", "setting": "[2]; 201.5 nM in water", "result": "527,824 ± 34,172"}, {"measurement": "inhibition at 0.0224 µM", "setting": "[2]; Danio rerio, PANC-1, 22.4 nM in water, read-out: Inhibition Rate (%)", "result": 17, "unit": "%"}, {"measurement": "inhibition at 0.0672 µM", "setting": "[2]; Danio rerio, PANC-1, 67.2 nM in water, read-out: Inhibition Rate (%)", "result": 29, "unit": "%"}, {"measurement": "inhibition at 0.2015 µM", "setting": "[2]; Danio rerio, PANC-1, 201.5 nM in water, read-out: Inhibition Rate (%)", "result": 43, "unit": "%"}, {"measurement": "pIC50", "setting": "HCT-8 cells; read-out: IC50 HCT-8, hypoxia (5% CO2, 95% N2), 48 h, CCK-8", "result": 6.37}, {"measurement": "pIC50", "setting": "HCT-8 cells; read-out: IC50 HCT-8, normoxia, 48 h drug exposure, CCK-8", "result": 6.28}]}]}
